Ten compounds from patent US6011052A, “Pyrazolone derivatives as MCP-1 antagonists” (Warner-Lambert Company, priority 1997, dated 2000) can be followed below.

Experiment [1] concerns rat T cells, skin DHR sites. Put plainly: T cell recruitment at sites of cutaneous delayed hypersensitivity (DHR) to KLH in rats. Type of experiment: in vivo, rat (Lewis). To be noted: 24 hours. On the procedure: Inbred, approximately 200 gm, male Lewis rats were used in all experiments. Cutaneous delayed hypersensitivity (DHR) was induced as previously described (1). Briefly, rats were sensitized to KLH (keyhole limpet hemocyanis) (Sigma Chemical Co., St. Louis, Mo.) by administering 50 μg KLH in 0.1 ml complete Freund's adjuvant (CFA; Sigma Chemical Co.) into each of 4 subcutaneous sites. After 14 days, DHR was elicited by the challenge of 5 μg KLH in PBS into multiple intradermal sites on the back. Analysis was performed 24 hours after antigen challenge. For each experiment, there were at least three groups of animals of at least four animals in each group. […]
T cell recruitment at sites of DHR was quantified using methods previously described (1-4). […] The cells in the effluent were highly purified (>95%) rat T cells as assessed by anti-rat CD3 (monoclonal antibody KT3, Biosource International, Camarillo, Calif.) immunoreactivity by flow cytometry. […] Skin challenge sites (8 mm in diameter) were counted on a γ counter 24 hours after injection of radiolabeled T cells. Lung, liver, and spleen were also collected and counted as comparative indices for evaluation of input.
Statistical significance was determined using a paired student's t-test. […]

Experiment [2] has as its system CD3-Blast (MCP-1 mediated chemotaxis). In words: MCP-1 mediated CD3-Blast chemotaxis assay (transendothelial migration over ECV304 cells). Type of experiment: cell-based. To be noted: Homo sapiens, ECV-304; for inhibition at 10 µM: range given for multiple replications. How it is done: Recombinant human MCP-1 was obtained from Peprotech (Rockey Hill, N.J.). […] RBCs were removed by hypotonic lysis. […] The cells are expanded and cultured for up to 3 weeks. […] The endothelial cells used for this assay were the endothelial cell line ECV304, obtained from the ECACE (Porton Downs, UK). Endothelial cells were cultured on 6.5 mm diameter Transwell culture inserts (Costar) with a […] pore size. […] Twenty four hours before the assay, 2×10^5 ECV304 cells were plated onto each innert of the 24 well chemotaxis plate and incubated at 37° C. MCP-1 (diluted in assay medium) with or without compounds, was added to the 24-well tissue culture plates in a final volume of […]. […] The cells that had migrated to the bottom chamber were enumerated using flow cytommetry. […] of the cell suspension from the lower chamber was placed in a tube, and relative cell counts were obtained by acquiring events for a set time period of 30 seconds. […] Background migration was determined by counting cells that migrated in the absence of MCP-1 in the lower chamber. This background migration of cells per 30 second count was substrated from the migration to MCP-1 to obtain specific migration. The percent inhibition by compounds of directed migration was determined by the following formula: 1 minus the specific migration in the presence of MCP-1 and compound, divided by the specific migration in the presence of just MCP-1. [drawing 13]

Experiment [3] concerns skin DHR sites. In words: Histologic analysis of skin DHR sites in rats. It counts as in vivo, rat (Lewis). The note with it: 15 mg/kg per os, compared to sensitized animals given vehicle alone. On the procedure:
Inbred, approximately 200 gm, male Lewis rats were used in all experiments. Cutaneous delayed hypersensitivity (DHR) was induced as previously described (1). Briefly, rats were sensitized to KLH (keyhole limpet hemocyanis) (Sigma Chemical Co., St. Louis, Mo.) by administering 50 μg KLH in 0.1 ml complete Freund's adjuvant (CFA; Sigma Chemical Co.) into each of 4 subcutaneous sites. After 14 days, DHR was elicited by the challenge of 5 μg KLH in PBS into multiple intradermal sites on the back. Analysis was performed 24 hours after antigen challenge. For each experiment, there were at least three groups of animals of at least four animals in each group. One group of nonsensitized, naive animals was used as a negative control and received vehicle alone (consisting of 0.5% hydroxypropylmethylcellulose/0.2% Tween 80 in water) per os at the time of challenge. As positive controls, one group of sensitized animals received vehicle alone per os at the time of KLH challenge. A third group consisted of sensitized animals that received compound suspended in vehicle per os at the time of KLH challenge.
For histologic analysis, representative skin specimens were fixed in 10% phosphate-buffered formalin, processed by routine histological techniques, cut at a thickness of […], and sections stained with hematoxylin and eosin.

Experiment [4] addresses T1, MCP-1 receptor (Homo sapiens, UniProt P41597).
T1 construct: endogenous in cells; host or cells: THP-1 cells (ATCC TIB 202), selected for increased MCP-1 receptor expression
T1 sequence (P41597 1-360 isoform P41597-2): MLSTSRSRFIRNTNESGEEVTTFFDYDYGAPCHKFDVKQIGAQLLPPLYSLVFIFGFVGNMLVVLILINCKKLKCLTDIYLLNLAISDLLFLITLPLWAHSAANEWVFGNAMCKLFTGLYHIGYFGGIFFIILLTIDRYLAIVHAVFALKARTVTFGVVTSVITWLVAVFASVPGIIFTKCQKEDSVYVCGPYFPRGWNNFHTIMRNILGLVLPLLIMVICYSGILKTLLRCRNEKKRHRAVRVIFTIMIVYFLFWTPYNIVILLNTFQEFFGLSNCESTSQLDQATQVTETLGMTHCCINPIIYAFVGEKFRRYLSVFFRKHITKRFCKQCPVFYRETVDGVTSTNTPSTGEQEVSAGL
Put plainly: MCP-1 binding assay (125I-labeled MCP-1, THP-1 cell membranes). The note with it: for IC50: THP-1 membranes, 0.2 nM 125I-MCP-1, 30 minutes at room temperature, read-out: Inhibition of MCP-1 Binding IC50; for inhibition at 10 µM: printed in the IC50 μM column, read-out: Inhibition of MCP-1 Binding, percent @ 10 μM. On the procedure: Membranes used in the MCP-1 binding assay were prepared from THP-1 cells (human monocytic cell line source--American Type Culture Collection, Tumor Immunology Bank #202, Rockville, Md., accession no. ATCC TIB 202) selected for increased levels of expression of the MCP-1 receptor. Cells were harvested by centrifugation and washed twice in ice-cold PBS (phosphate-buffered saline) and the cell pellet was frozen at -80° C. in some cases. Cells were resuspended in ice-cold lysis buffer 5 mM HEPES (2-(4N-[2-hydroxyethyl] piperazin-1-yl)-N'-(2-ethanesulfonic acid), pH 7.5, 2 mM EDTA (ethylenediaminetetraacetic acid), 5 ug/ml each leupeptin, aprotinin, chymostatin (protease inhibitors), and 100 ug/ml PMSF (phenylmethane sulfonyl fluoride--also a protease inhibitor)) at a concentration of 5×10^7 cells/ml. The cell suspension was dounced 10-15 times using the B pestle (small pestle of tissue grinder--clearance is 0.07 mm; source--Fisher Scientific) on ice. Nuclei and debris were removed by centrifugation at 500-1000×g for 10 minutes at 4° C. The supernatant was transferred to a fresh tube and centrifuged at 25,000×g for 30 minutes at 4° C. The supernatant was aspirated and the pellet was resuspended in freezing buffer (10 mM HEPES, pH 7.5, 300 mM sucrose, 1 ug/ml each leupeptin, aprotinin, chymostatin, and 10 ug/ml PMSF) using a minihomogenizer until all clumps were resolved. Membranes were aliquoted and frozen at minus 70-85° C. until needed. Typical binding assays used 10-20 ug/well of total membrane protein as determined with a standard protein assay (e.g. BioRad, Richmond, Calif.) or: as determined with a Bradford protein assay (e.g. BioRad, Richmond, Calif.).
For binding, different amounts of membranes were included in the binding reaction along with 0.2 nM I^125 -labeled MCP-1 (Amersham, Arlington Heights, Ill.) with or without unlabeled cold competitor MCP-1 (Peprotech, Rocky Hill, N.J.) (at 500 nM). Binding reactions were performed in a final volume of 100 ul in a binding buffer containing 10 mM HEPES, pH 7.2, 1 mM CaCl2, 5 mM MgCl2, 0.5% BSA (bovine serum albumin). After 30 minutes at room temperature, the binding reactions were filtered through GF/C filters (Whatman glass fiber filters, Type C) or GF/B unifilter plates (Parkard) which had been pre-soaked with 0.3% poly ethyleneimine and washed twice with binding buffer containing 0.5 M NaCl. Filters were dried and counted in a Beta-Plate scintillation counter using standard scintillation fluid. Final concentration of compound in the binding assay ranged from 0.05-100 μM. Compounds were dissolved in DMSO (dimethyl sulfoxide). Final concentrations of DMSO in the binding were kept constant at 0.05%.
IC50s were calculated using a 3-parameter logistic fit. Negative control contained same amount of DMSO vehicle asused in wells containing compound. Positive control contained 500 nM cold competitor MCP-1 in DMSO vehicle.

In general, inhibition refers to the relative decrease from the control value, in per cent. For orientation: IC50 means the midpoint of a concentration-inhibition curve. For the compound `Nc1c(C2CCCCC2)[nH][nH]c1=O` [Example 1, 4-Amino 5-Cyclohexyl-3-Pyrazolone], the “statistical significance of inhibition of T cell recruitment in rat DHR” value in experiment [1] (15 mg/kg per os at the time of antigen challenge) is “statistically significant inhibitory effect”. Also, the “inhibition of recruitment of 111In-labeled rat T cells to skin DHR sites” value in experiment [1] (once per os at the time of antigen challenge, various doses (FIG. 3)) is “inhibited the recruitment of ^III In-labeled rat T cells to skin DHR sites in a dose-dependent fashion”. Moreover, the inhibition at 10 µM in experiment [2] was 33 to 70%. Moreover, in experiment [3], the “inflammatory activity of skin sites (histology)” value is reported as “attenuated in inflammatory activity” and the “mononuclear cells infiltration in deep dermis (histology)” value was “reduced mononuclear cells infiltration in deep dermis”. For the same compound, in experiment [4], the IC50 was 1270 nM.
As for `Nc1c(-c2ccncc2)[nH][nH]c1=O` [Example 3], the inhibition at 10 µM in experiment [2] was 5 to 49%; in experiment [4], 95%.
In the case of `Nc1c(-c2ccccc2)n[nH]c1O` [Example 4], the inhibition at 10 µM in experiment [2] was in the range of 58 to 61%. In experiment [4], the IC50 came to 730 nM.
Take `Cn1[nH]c(=O)c(N)c1-c1ccccc1` [Example 5]: the results for the inhibition at 10 µM in experiment [2] and in experiment [4] were -23 to 48% and 90%, respectively.
Consider `COc1ccc(-c2[nH]nc(O)c2N)cc1` [Example 6], for which, in experiment [4], the IC50 stood at 1490 nM.
As to `Nc1c[nH]nc1O` [Example 9], in experiment [4], the half-maximal inhibitory concentration (IC50) amounted to 1650 nM.
As for `Cc1[nH][nH]c(=O)c1N` [Example 10], the inhibition at 10 µM in experiment [2] lay in the range of 25 to 27%.
Regarding `Cc1c(N)c(=O)n(-c2ccccc2)n1C` [Example 13], the IC50 in experiment [4] came to 2270 nM.
Take `NC(=O)c1[nH]n(-c2ccc(Cl)cc2Cl)c(=O)c1N` [Example 19]: the IC50 in experiment [2] (unit inferred, read-out: Inhibition of MCP-1 mediated chemotaxis of CD3-Blast, IC50) came to 480 nM; in experiment [4] it was 6240 nM.
With `Oc1[nH]nc2c1NCCC2` [Example 37], the IC50 in experiment [4] stood at 5640 nM.
